“Also recorded” adds a separate entry of the source.
Tests used:
[1] = tested on: mouse serum proteins; assay: Serum protein (albumin) binding by ultrafiltration, mouse serum; format: in vitro ADME; settings: 37° C.
Experimental: (§1) The devices were pre-treated with PBS containing Tween 20 (5% v/v) as disclosed in Hausner 2007, followed by triplicate rinses with PBS. An aliquot of each formulated radiotracer in PBS (≤25 μL, 20-60 KBq) was thoroughly mixed with 0.5 mL serum at 37° C. in a microfuge tube. The mixture was incubated at 37° C. for 5 min and an aliquot (50 μL) of was transferred to a tube for γ-counting. The remaining sample was transferred to a Centrifree Ultrafiltration device and centrifuged for 40 min. at 1500×g at ambient temperature (20-24° C.). An aliquot (50 μL) of the filtrate was transferred to a tube for γ-counting. For each radiotracer, a blank was run using 0.5 mL PBS/Tween 20 (5% v/v) instead of serum (n=4) to determine non-specific binding. Following γ-counting, the protein-bound radioactivity was calculated by subtracting the counts measured in the filtrate aliquot (i.e., not protein bound) from the counts in the corresponding serum aliquot. The data are expressed as mean±standard deviation of fraction of radioactivity bound to protein after subtraction of non-specific binding determined in the blank.

[2] = tested on: human serum proteins; assay: Serum protein (albumin) binding by ultrafiltration, human serum; format: in vitro ADME; settings: 37° C.
Experimental: as §1

[3] = Blocking study (cold peptide 10 min before radiotracer), biodistribution; format: in vivo, mice; settings: female, nu/nu nude, mouse, BxPC-3 tumor, iv, total radioactivity; 4 h p.i.; DOTA-ABM-5G 48 mg/kg 10 min before
Experimental: (§2) Female nu/nu nude mice (6-8 weeks old) were purchased from Charles River Laboratories (Wilmington, MA, USA) and handled according to the UC Davis Institutional Animal Care and Use Committee. BxPC-3 cells (5×10^6) in 100 μl 1:1 GFR-Matrigel: serum-free RPMI were implanted subcutaneously into the left shoulder flank and allowed to grow for approximately 2 weeks (therapy study) and 3 weeks (0.5-1 cm in diameter, for imaging and biodistribution studies). All cells were evaluated with flow cytometry before injection to confirm integrin expression levels. Food and water were available ad libitum.
(§3) For blocking studies, respective non-chelated cold peptide (30 mg/kg, 10 mg/mL (DOTA-5G) and 48 mg/kg, 16 mg/mL (DOTA-ABM-5G) solution in PBS) was injected 10 min. before the formulated radiotracer. At each time point, the mice (n=3/time point/radiotracer) were anesthetized and sacrificed. The tissues were collected, rinsed with PBS, and the radioactivity of each measured with a gamma counter. Radioactivity concentrations were calibrated, decay-corrected, and expressed as percent of injected dose per gram of tissue (% ID/g).

[4] = tested on: BxPC-3 (αvβ6 (+)) tumors; assay: as above; format: in vivo, mice; settings: 4 h p.i.
Experimental: as §2, §3

[5] = tested on: locally advanced, unresectable or metastatic pancreatic adenocarcinoma; assay: Single institution pilot study, 3+3 dose escalation; format: in vivo, human; settings: individual patients
From the text: Patients first underwent a single microdose of [^68Ga]Ga DOTA-5G PET/CT to assess eligibility for the [^177Lu]Lu DOTA-ABM-5G therapy. Only patients with sufficient lesion uptake (any visualized lesion with SUVmax>2-fold above normal lung or liver) were offered therapy with [^177Lu]Lu DOTA-ABM-5G. The study was designed as a 3+3 dose escalation study with [^177Lu]Lu DOTA-ABM-5G. The treatment regimen consisted of one dose of [^177Lu]Lu DOTA-ABM-5G. The 3+3 design included three patients for the first activity level group (25 mCi) (see Table 4, below). Dose-limiting toxicity (DLT) is defined as any treatment related AE≥grade 3 (G3). In addition, the radiation dose to the kidneys must not exceed 23 Gy and the dose to the bone marrow must not exceed 1.5 Gy. If no DLT occurs within 30 days (after the third patient), 3 patients were then enrolled at the next dose level. Should a patient not be available for complete evaluation of treatment related toxicity within the 30 day DLT window due to non-treatment related issues, the patient was replaced for the purpose of DLT assessment at the same dose level. If DLT attributable to the study treatment is experienced in exactly ⅓ subjects in the first course, 3 more patients (for a total of 6) are treated at that dose level. The dose was escalated if no additional DLT is observed at the expanded dose level (i.e., ⅙ with DLT). Escalation stops as soon as two or more subjects experience DLT attributable to the study drugs. The highest dose (200 mCi limit) with no more than one DLT out of six patients is recommended for Phase II. The radiation dose to the kidneys must not exceed 23 Gy and the dose to the bone marrow must not exceed 1.5 Gy.
Patients deemed eligible based on the [^68Ga]Ga DOTA-5GPET/CT were scheduled to receive one dose of the [^177Lu]Lu DOTA-ABM-5G therapy within 4 weeks (±7 days) of the [^68Ga]Ga DOTA-5G scan. […] For renal protection purpose, a 4-hour co-infusion of an amino acid solution (containing L-lysine [between 18 g and 24 g] and L-arginine [between 18 g and 24 g] was started 30 minutes prior to the infusion of [^177Lu]Lu DOTA-ABM-5G and continued at a constant rate (250 cc/hr) for a total of 4 hours. The patient was monitored for one hour after completion of the amino acid solution infusion. Administration of the amino acid solution before, during and after the [^177Lu]Lu DOTA-ABM-5G therapy was based on experience with Lu-177 DOTATATE to flush the radionuclide through the proximal tubules and decrease the radiation dose to the kidneys. […]
The biodistribution and dosimetry was evaluated using nuclear imaging at 1 day and 7 days post-infusion of [^177Lu]Lu DOTA-ABM-5G. […]

[6] = tested on: integrin αvβ6(+) BxPC-3 cells; assay: Cell binding, internalization and efflux; settings: 37° C.

CNC(=O)C(CCCCNC(=O)C(CC(=O)O)NC(=O)CCCNC(=O)CCCc1ccc(I)cc1)NC(=O)CN1CCN2CCN3CCN(CC1)CC(=O)[O][177Lu]([O]C(=O)C2)[O]C(=O)C3 (centres unmarked) [[^177Lu]Lu DOTA-ABM-5G]
albumin (serum protein) binding [1]: 54.4±2.8%
albumin (serum protein) binding [2]: 58.1±0.4%
tissue uptake at 4 h [3]: 4.12 %ID/g
change of BxPC-3 tumor uptake by blocking (Δ) [4]: −42%
Current status ([5]; Dose Level 1 (25 mCi)): alive, increase in metastatic; also recorded: alive, stable disease; also recorded: Deceased (patient deteriorated
Renal function over 90 days ([5]; Dose Level 1 (25 mCi)): no change
Current status ([5]; Dose Level 2 (50 mCi)): alive, no evidence of liver; also recorded: alive
Renal function over 90 days ([5]; Dose Level 2 (50 mCi)): no change
bound to BxPC-3 cells (of total radioactivity) ([6]; 1 h): 29±1.4%
internalized into BxPC-3 cells (of total radioactivity) ([6]; 1 h): 21.6±0.01%
efflux from BxPC-3 cells ([6]; at 1 hour post-internalization): 5%
